Measured values from patent US20220073496A1, “NOVEL QUINOLINE DERIVATIVE INHIBITOR” (Nanjing Transthera Biosciences Co., Ltd., priority 2018, published 2022).

What was measured:
Tyro-3 (h) = biological target: T1, Tyro-3 (h) (Homo sapiens, UniProt Q06418); experiment: Enzymatic activity test, Tyro-3 (h); type: biochemical; details: 10 μM [γ-33P]-ATP, 40 minutes, room temperature
T1 construct: purchased
T1 sequence (Q06418 41-890): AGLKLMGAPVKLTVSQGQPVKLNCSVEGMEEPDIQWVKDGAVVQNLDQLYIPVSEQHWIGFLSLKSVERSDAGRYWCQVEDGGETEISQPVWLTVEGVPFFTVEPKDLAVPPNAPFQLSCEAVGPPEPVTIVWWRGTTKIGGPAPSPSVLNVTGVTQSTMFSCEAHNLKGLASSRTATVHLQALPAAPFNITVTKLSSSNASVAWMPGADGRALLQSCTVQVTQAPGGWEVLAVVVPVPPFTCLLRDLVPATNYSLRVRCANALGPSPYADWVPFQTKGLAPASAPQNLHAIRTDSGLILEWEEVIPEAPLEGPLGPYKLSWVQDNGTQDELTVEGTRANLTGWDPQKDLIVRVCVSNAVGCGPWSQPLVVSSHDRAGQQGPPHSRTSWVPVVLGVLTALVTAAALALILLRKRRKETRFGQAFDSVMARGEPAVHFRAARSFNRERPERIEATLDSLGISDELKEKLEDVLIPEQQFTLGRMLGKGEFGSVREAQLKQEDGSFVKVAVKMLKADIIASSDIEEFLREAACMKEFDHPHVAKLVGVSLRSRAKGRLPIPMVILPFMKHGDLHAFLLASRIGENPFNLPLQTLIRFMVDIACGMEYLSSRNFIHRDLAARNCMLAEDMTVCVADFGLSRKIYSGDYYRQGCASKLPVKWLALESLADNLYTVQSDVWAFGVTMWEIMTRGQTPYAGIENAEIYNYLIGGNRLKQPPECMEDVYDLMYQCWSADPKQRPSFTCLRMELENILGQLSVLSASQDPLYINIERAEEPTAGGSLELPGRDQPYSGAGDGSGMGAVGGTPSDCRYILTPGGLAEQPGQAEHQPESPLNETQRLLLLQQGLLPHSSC
Description: Assay 3: Enzymatic Activity Test of the Compounds of the Present Invention
Test substances: the compounds of the present invention, wherein the structures and preparations thereof were as described above.
(1) Preparation of the Compound Stock Solution
The compound was dissolved in 100% DMSO to prepare a stock solution with a maximum concentration of 500 μM.
(2) Preparation of the Compound Working Solution
The compound stock solution was diluted to final concentrations of 500, 150, 50, 15, 5, 1.5, 0.5, 0.15 and 0.05 μM to become the compound working solutions (50×).
(3) Preparation of Different Enzyme Reaction Solutions
The Tyro3 (h) enzyme was dissolved in 8 mM MOPS (pH 7.0), 0.2 mM EDTA, 1 mM MnCl2, and 250 μM KVEKIGEGTYGVVYK to prepare an enzyme solution having a final concentration of 38 nM. The enzymatic reaction was activated by using 10 mM magnesium acetate and 10 μM [γ-^33P]-ATP to form an Mg/ATP mixed solution.
In a 384-well plate, the compound working solution was added to final concentrations of 10000, 3000, 1000, 300, 100, 30, 10, 3, and 1 nM. Then different enzyme reaction solutions prepared according to the above conditions were added. The incubation was carried out for 40 minutes at room temperature. The test was terminated by the addition of a 0.5% phosphoric acid solution. 10 μL of the reaction solution was taken and dropped to the P30 filter paper. The filter paper was washed 4 times with 0.425% phosphoric acid solution and once with methanol, and then placed on a scintillation counter. The […] IC50 values were calculated using GraphPad 5.0 software.

H1299 cell pAxl = biological target: T2, H1299 cell pAxl (Homo sapiens, UniProt P30530); experiment: Inhibitory activity on the cell pAxl (Western Blot); type: cell-based; details: H1299 cells, compound 1.1, 3.3, 10, 30 nM, hGAS6 200 ng/mL
T2 construct: endogenous in cells; host or cells: H1299
T2 sequence (P30530 26-894): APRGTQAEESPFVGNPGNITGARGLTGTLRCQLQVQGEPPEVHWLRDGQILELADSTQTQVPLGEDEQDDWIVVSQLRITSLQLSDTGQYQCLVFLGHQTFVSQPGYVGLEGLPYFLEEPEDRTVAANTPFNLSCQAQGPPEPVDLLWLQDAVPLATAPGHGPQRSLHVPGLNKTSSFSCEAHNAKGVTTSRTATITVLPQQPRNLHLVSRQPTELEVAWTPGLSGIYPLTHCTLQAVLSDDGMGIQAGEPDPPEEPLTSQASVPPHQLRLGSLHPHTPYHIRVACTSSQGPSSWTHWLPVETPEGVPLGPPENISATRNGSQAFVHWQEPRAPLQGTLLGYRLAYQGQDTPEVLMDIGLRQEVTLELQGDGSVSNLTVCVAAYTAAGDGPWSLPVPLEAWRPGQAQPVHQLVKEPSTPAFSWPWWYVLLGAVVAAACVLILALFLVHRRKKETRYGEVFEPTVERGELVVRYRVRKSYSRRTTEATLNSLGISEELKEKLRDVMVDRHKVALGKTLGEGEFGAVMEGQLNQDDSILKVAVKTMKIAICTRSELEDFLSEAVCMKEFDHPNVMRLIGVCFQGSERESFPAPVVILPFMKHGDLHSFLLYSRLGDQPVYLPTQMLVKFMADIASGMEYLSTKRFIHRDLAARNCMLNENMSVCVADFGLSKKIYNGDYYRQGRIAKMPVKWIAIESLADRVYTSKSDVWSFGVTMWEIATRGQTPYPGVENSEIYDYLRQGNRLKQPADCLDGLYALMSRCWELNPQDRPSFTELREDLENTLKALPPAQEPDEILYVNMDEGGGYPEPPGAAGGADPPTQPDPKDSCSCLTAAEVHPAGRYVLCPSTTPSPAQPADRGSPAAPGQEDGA
Description: Assay 5: Test for Inhibitory Activities of the Compounds of the Present Invention on the Cell pAxl
H1299 is a non-small cell lung cancer cell.
Test substances: the compounds of the present invention, wherein the structures thereof were as described above.
Test equipment: protein electrophoresis apparatus (manufactured by Bio Rad), transfer unit (manufactured by Bio Rad), exposure unit (manufactured by Tanon), CO2, cell incubator (manufactured by Thermo).
The H1299 cells were inoculated in a 6-well plate (containing 10% FBS 1640 medium, 5×10^5 cells per well), and adherent cells were cultivated at 37° C. in a 5% CO2 condition for 18 hours. The cells were starved overnight. Different concentrations of compounds were added. The final compound concentrations were 1.1, 3.3, 10, and 30 nM, and the final DMSO content was 1‰. The negative control wells contained the medium containing 1‰ DMSO. After incubating at 37° C. in a 5% CO2 condition for 60 minutes, hGAS6 (R&D, final concentration 200 ng/mL) was added to each well. After further incubating for 60 minutes, the cell total protein was extracted for Western Blot and the […] values were calculated using GraphPad 5.0 software. The inhibitory activity of the compound on the cell pAxl was examined.

| Compound | IC50 (Tyro-3 (h)) [nM] | IC50 (H1299 cell pAxl) [nM] |
| --- | --- | --- |
| COc1cc2nccc(Oc3ccc(NC(=O)c4nn(C(C)C)cc(-c5ccc(F)cc5)c4=O)nc3)c2cc1OC [Compound 15, N-(5-((6,7-dimethoxyquinolin-4-yl)oxy)pyridin-2-yl)-5-(4-fluorophenyl)-1-isopropyl-4-oxo-1,4-dihydropyridazine-3-carboxamide] | 13 | < 1.1 |
| COc1cc2nccc(Oc3ncc(NC(=O)c4nn(C5CC5)cc(-c5ccc(F)cc5)c4=O)cn3)c2cc1OC [Compound 37, 1-cyclopropyl-N-(2-((6,7-dimethoxyquinolin-4-yl)oxy)pyrimidine-5-yl)-5-para-fluorophenyl-4-oxo-1,4-dihydropyridazine-3-carboxamide] | 12 | < 1.1 |
| COc1cc2nccc(Oc3cnc(NC(=O)c4nn(C(C)C)cc(-c5ccc(F)cc5)c4=O)nc3)c2cc1OC [Compound 16, N-(5-((6,7-dimethoxyquinolin-4-yl)oxy)pyrimidine-2-yl)-5-(4-fluorophenyl)-1-isopropyl-4-oxo-1,4-dihydropyridazine-3-carboxamide] | 12 | < 1.1 |
| COc1cc2nccc(Oc3ccc(NC(=O)c4nn(C5CC5)cc(-c5ccc(F)cc5)c4=O)nc3)c2cc1OC [Compound 31] | 7 | < 1.1 |
| COc1cc2nccc(Oc3cnc(NC(=O)c4cn(C5CC5)cc(-c5ccc(F)cc5)c4=O)nc3)c2cc1OC [Compound 32, 1-cyclopropyl-N-(5-((6,7-dimethoxyquinolin-4-yl)oxy)pyrimidine-2-yl)-5-(4-fluorophenyl)-4-oxo-1,4-dihydropyridin-3-carboxamide] | 11 | < 1.1 |
| COc1cc2nccc(Oc3cnc(NC(=O)c4cn(C(C)C)nc(-c5ccc(F)cc5)c4=O)nc3)c2cc1OC [Compound 39, N-(5-((6,7-dimethoxyquinolin-4-yl)oxy)pyrimidine-2-yl)-6-(4-fluorophenyl)-2-isopropyl-5-oxo-2,5-dihydropyridazine-4-carboxamide] | 36 | 3.3 |
| COc1cc2nccc(Oc3ccc(NC(=O)c4cn(C(C)C)cc(-c5ccc(F)cc5)c4=O)nc3)c2cc1OC [Compound 14, N-(5-((6,7-dimethoxyquinolin-4-yl)oxy)pyridin-2-yl)-5-(4-fluorophenyl)-1-isopropyl-4-oxo-1,4-dihydropyridin-3-carboxamide] | 21 | < 1.1 |
| COc1cc2nccc(Oc3ccc(NC(=O)c4nn(C(C)C)cc(-c5ccc(F)cc5)c4=O)cn3)c2cc1OC [Compound 29, N-(6-((6,7-dimethoxyquinolin-4-yl)oxy)pyridin-3-yl)-1-isopropyl-4-oxo-5-para-fluorophenyl-1,4-dihydropyridazine-3-carboxamide] | 12 | < 1.1 |
| COc1cc2nccc(Oc3cnc(NC(=O)c4nn(C5CC5)cc(-c5ccc(F)cc5)c4=O)nc3)c2cc1OC [Compound 33] | 8 | < 1.1 |
| COc1cc2nccc(Oc3ccc(NC(=O)c4cn(C(C)C)nc(-c5ccc(F)cc5)c4=O)nc3)c2cc1OC [Compound 41, N-(5-((6,7-dimethoxyquinolin-4-yl)oxy)pyridin-2-yl)-6-(4-fluorophenyl)-2-isopropyl-5-oxo-2,5-dihydropyridazine-4-carboxamide] | 65 | < 10 |
| COc1cc2nccc(Oc3ccc(NC(=O)c4cn(C(C)C)nc(-c5ccc(F)cc5)c4=O)cn3)c2cc1OC [Compound 38, N-(6-((6,7-dimethoxyquinolin-4-yl)oxy)pyridin-3-yl)-6-para-fluorophenyl-2-isopropyl-5-oxo-2,5-dihydropyridazine-4-carboxamide] | 93 | 3.3 |
| COc1cc2nccc(Oc3ccc(NC(=O)c4cn(C5CC5)cc(-c5ccc(F)cc5)c4=O)nc3)c2cc1OC [Compound 30, N-(5-((6,7-dimethoxyquinolin-4-yl)oxy)pyridin-2-yl)-1-cyclopropyl-4-oxo-5-para-fluorophenyl-1,4-hydropyridin-3-carboxamide] | 16 | < 1.1 |
| COc1cc2nccc(Oc3ccc(NC(=O)c4cn(C(C)C)cc(-c5ccc(C)cc5)c4=O)nc3)c2cc1OC [Compound 1, N-(5-((6,7-dimethoxyquinolin-4-yl)oxy)pyridin-2-yl)-1-isopropyl-4-oxo-5-p-tolyl-1,4-dihydropyridin-3-carboxamide] | 29 | < 1.1 |
| COc1cc2nccc(Oc3ncc(NC(=O)c4cn(C(C)C)nc(-c5ccc(F)cc5)c4=O)cn3)c2cc1OC [Compound 40, N-(2-((6,7-dimethoxyquinolin-4-yl)oxy)pyrimidine-5-yl)-6-(4-fluorophenyl)-2-isopropyl-5-oxo-2,5-dihydropyridazine-4-carboxamide] | 143 | 10 |
| COc1cc2nccc(Oc3ccc(NC(=O)c4nn(C5CC5)cc(-c5ccc(F)cc5)c4=O)cn3)c2cc1OC [Compound 36] | 7 | < 1.1 |
| COc1cc2nccc(Oc3ncc(NC(=O)c4nn(C(C)C)cc(-c5ccc(F)cc5)c4=O)cn3)c2cc1OC [Compound 34, N-(2-((6,7-dimethoxyquinolin-4-yl)oxy)pyrimidine-5-yl)-5-para-fluorophenyl-1-isopropyl-4-oxo-1,4-dihydropyridazine-3-carboxamide] | 7 | < 1.1 |
